Values joined by “and” are separate entries in the source; they are usually repeats but may differ in a detail not shown here. Identical values can stand only once.
Tests used:
Assay type in all cases: cell-based
USP7 [1] = molecular target: T1, USP7 (Homo sapiens, UniProt Q93009); assay: USP7 degradation, Western blot densitometry, Panc89 cells; conditions: for DC50: read-out: DC50 (half-maximal degradation concentration); for USP7 degradation (in words): 24 h
T1 construct: allowed the analysis of endogenous USP7 degradation in both cell lines; endogenous in cells; host or cells: Panc89 (PDAC) and Ma-Mel-47 (melanoma) cells
Description: (§1) The melanoma cell line Ma-Mel-47 (established previously[57] from metastatic lesions from patient tumor tissues after written informed consent) and the PDAC cell line Panc89 (RRID: CVCL_4056, also referenced as T3M-4[58]) were cultured in a humidified incubator with 5% CO2 at 37 °C in RPMI1640 (Ma-Mel-47) / DMEM (Panc89) medium containing 10% (v/v) fetal calf serum (FCS) and penicillin/streptomycin (all Gibco, Thermo Fisher Scientific). Studies on human material were approved by the institutional review board. […] Testing for mycoplasma was performed by PCR monthly. To confirm cell identity, STR analysis was performed by the Microsynth Seqlab GmbH.
(§2) To prepare samples for Western blot analysis, cells were seeded in 6-well dishes the day before treatment to adhere at 70–80% confluency.
(§3) Cell pellets of all PDAC samples were lysed via adding a buffer containing 150 mM NaCl, 50 mM Tris/HCl (pH 7.4), 1% Triton X-100, 10 mM EDTA, 1 mM PMSF, 10 mM orthovanadate, and 1% aprotinin, incubating on ice for 1 h with vortexing every 15 minutes. Lysates were cleared of cell debris by centrifugation at 10,000 ×g at 4 °C for 10 min. […] Lysates were then clarified of cell debris by centrifugation at 13,000 ×g at 4 °C for 15 min. Thereafter, the total protein concentrations were either determined immediately or the protein extracts were stored at −20 or −80 °C. Pellets for samples shown in Fig. 6 and Supplementary Fig. 6 were lysed in 120 µL lysis buffer (50 mM Tris pH 8.0, 150 mM NaCl, 1% (v/v) IGEPAL, 0.5% (w/v) Na-deoxycholate, 0.1% (w/v) SDS) supplemented with 1x EDTA-free inhibitor protease cocktail (cOmplete, Roche) for 15 min at 4 °C. 0.2 µL Turbonuclease (Sigma Aldrich) and 5 mM MgCl2 were then added and lysates were incubated for 15 min at 4 °C. Cell debris was separated by centrifugation at 20,817 ×g for 15 min at 4 °C.
(§4) Protein concentrations of cell lysates were measured using the Pierce BCA Protein Assay (Thermo Fisher Scientific) or the Quick Start Bradford Protein Assay (Bio-Rad), following the manufacturers’ protocols. Measurements were recorded on Tecan Spark or Tecan Infinite M200 plate readers. Lysates were kept on ice throughout the entire process.
(§5) To separate proteins via SDS-PAGE, 10-20 µg of protein in lysis buffer was diluted with SDS-PAGE loading buffer (for most blots containing DTT or 2-mercaptoethanol) and denatured at 95 °C for 5 min. Protein separation was conducted at 95–110 V using the Mini-PROTEAN electrophoresis system (Bio-Rad). Proteins were then transferred to PVDF or nitrocellulose membranes using the Trans-Blot Turbo system (Bio-Rad) with the Trans-Blot Turbo RTA Kit for PVDF membranes. Prior to transfer, membranes were activated by soaking in 100% ethanol (for PVDF) or distilled water (for nitrocellulose) and proteins were transferred using the Mixed MW or the standard (1.0 A, 25 V, 30 min) protocol.
(§6) After transfer, membranes were blocked in 5% (w/v) milk/TBS-T for 1 h and then washed three times for 10 min with TBS-T. They were incubated overnight at 4 °C with the primary antibody in 5% (w/v) milk/TBS-T or 1% (w/v) BSA/TBS-T. Membranes were then washed three times for 10 min with TBS-T and incubated with horseradish peroxidase (HRP)-conjugated secondary antibodies in a solution of 5% (w/v) BSA/TBS-T or 1% (w/v) milk/TBS-T for 1 h at room temperature. PBS-T was used for blots shown in Fig. 6 and Supplementary Fig. 6.
(§7) Membranes were incubated with Clarity Western ECL substrate (Bio-Rad) for PDAC samples or Pierce ECL Western Blotting-Substrate (Thermo Fisher Scientific) for melanoma. Chemiluminescent signals were detected with a ChemiDoc Imaging System (Bio-Rad) for PDAC samples or with a ECL Chemostar Imager (Intas Science Imaging) for melanoma samples.
(§8) Densitometric quantification of band intensities for Fig. 2c, d was performed using the ImageJ software.

USP7 [2] = molecular target: T1, USP7; assay: USP7 degradation, Western blot densitometry, Ma-Mel-47 cells; conditions: for USP7 degradation (in words): 24 h; for DC50: read-out: DC50 (half-maximal degradation concentration); for USP7 levels in time course (in words): over 24 h
Description: as §1, §2, §3, §4, §5, §6, §7, §8

HiBiT-USP7 = HiBiT-USP7 (Homo sapiens, UniProt Q93009); assay: HiBiT USP7 degradation assay, MV4-11 cells; conditions: for DC50: MV4-11 HiBiT-USP7, 24 h
Description: HiBiT-USP7 construct was cloned by extraction of USP7 fragment from plasmid pQHA-USP7 WT puroR (Addgene #46753) using appropriate restriction sites. The USP7 fragment was then ligated into the pRRL-PGK-HiBiT entry vector to generate the plasmid.
Lentiviral infection was used to generate stable a MV4-11 HiBiT cell line. Lentivirus was produced using plasmids psPAX2, pMD2.G, and HiBiT-USP7 plasmid in HEK293 cells. MV4-11 cells were infected with filtered virus supernatant and selected after 48 h of infection for the generation of the stable MV4-11^HiBiT-USP7 cell line.
The assay was performed as described previously. Briefly, MV4-11^HiBiT-USP7 cells were seeded and treated with compounds for the indicated time. Nano-Glo HiBiT Lytic Detection System (Promega) was used for the assay and luminescence was measured on a Tecan Spark microplate reader (Tecan). DC50 values were calculated using the sigmoidal dose-response (four parameters) equation in GraphPad Prism and are given as the concentration where 50% of the total signal was remaining. Dmax values are given as the maximum degradation observed at any concentration.

[3] = Panc89, 24 h, Western blot densitometry
[4] = Ma-Mel-47, 24 h, Western blot densitometry
[5] = MV4-11, MV4-11 HiBiT-USP7, 24 h

T1 sequence (Q93009 whole entry): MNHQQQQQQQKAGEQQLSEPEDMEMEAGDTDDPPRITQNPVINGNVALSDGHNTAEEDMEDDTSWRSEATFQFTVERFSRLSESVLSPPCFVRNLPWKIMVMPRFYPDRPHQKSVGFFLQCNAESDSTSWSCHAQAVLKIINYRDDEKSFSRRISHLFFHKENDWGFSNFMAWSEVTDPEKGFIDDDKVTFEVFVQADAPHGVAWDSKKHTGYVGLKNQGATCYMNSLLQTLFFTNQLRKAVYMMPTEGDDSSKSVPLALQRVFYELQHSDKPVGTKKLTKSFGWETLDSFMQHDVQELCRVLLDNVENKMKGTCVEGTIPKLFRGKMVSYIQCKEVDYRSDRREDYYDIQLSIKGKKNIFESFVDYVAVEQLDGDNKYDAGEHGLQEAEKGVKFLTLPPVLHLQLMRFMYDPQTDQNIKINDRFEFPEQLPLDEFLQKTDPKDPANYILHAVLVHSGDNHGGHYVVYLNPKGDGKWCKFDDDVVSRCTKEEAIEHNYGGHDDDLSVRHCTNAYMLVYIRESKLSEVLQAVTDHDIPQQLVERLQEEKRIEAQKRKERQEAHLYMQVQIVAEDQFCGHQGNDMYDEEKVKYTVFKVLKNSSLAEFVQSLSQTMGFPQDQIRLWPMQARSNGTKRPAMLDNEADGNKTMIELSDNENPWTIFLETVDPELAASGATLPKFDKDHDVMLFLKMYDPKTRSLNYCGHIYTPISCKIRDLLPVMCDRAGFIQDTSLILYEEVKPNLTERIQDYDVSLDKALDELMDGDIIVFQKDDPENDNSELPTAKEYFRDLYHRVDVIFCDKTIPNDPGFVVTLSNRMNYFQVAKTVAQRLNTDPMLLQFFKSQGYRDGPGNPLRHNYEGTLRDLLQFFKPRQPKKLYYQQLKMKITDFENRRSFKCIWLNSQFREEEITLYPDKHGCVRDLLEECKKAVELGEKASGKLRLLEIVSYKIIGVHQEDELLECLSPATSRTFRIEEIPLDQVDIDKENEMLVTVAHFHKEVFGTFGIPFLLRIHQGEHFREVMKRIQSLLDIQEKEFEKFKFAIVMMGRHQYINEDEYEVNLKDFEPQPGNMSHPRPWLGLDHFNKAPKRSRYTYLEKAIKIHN
HiBiT-USP7, sequence (Q93009 whole entry, the tested form may be a part): as the sequence (Q93009 whole entry) above

Row | SMILES | Time after which USP7 degradation was observed (USP7 [1]; Panc89, 1 µM) | DC50 (USP7 [1]; [3]) [nM] | USP7 degradation (in words) (USP7 [1]; Panc89, increasing concentrations) | Time after which USP7 degradation was observed (USP7 [2]; Ma-Mel-47, 1 µM) [h] | USP7 degradation (in words) (USP7 [2]; Ma-Mel-47, 5 µM, Western blot) | Dmax (USP7 [2]; [4]) [%] | DC50 (USP7 [2]; [4]) [nM] | Dmax (HiBiT-USP7; MV4-11, MV4-11 HiBiT-USP7, 6 h) [%] | Dmax (HiBiT-USP7; [5]) [%] | DC50 (HiBiT-USP7) [nM] | USP7 levels in time course (in words) (USP7 [1]; Panc89, 1 µM, over 24 h) | USP7 levels in time course (in words) (USP7 [2]; Ma-Mel-47, 1 µM) | HiBiT-USP7 levels (in words) (HiBiT-USP7; MV4-11 HiBiT-USP7, 6 h and 24 h) | USP7 degradation (in words) (USP7 [1]; Panc89, 5 µM, Western blot) | Concentration of near complete degradation of USP7 (USP7 [1]; Panc89, 24 h) [nM] | Dmax (USP7 [1]; [3]) [%] | USP7 degradation (in words) (USP7 [2]; Ma-Mel-47, 1 µM)
1 | Cc1ncsc1-c1ccc([C@H](C)NC(=O)[C@@H]2C[C@@H](O)CN2C(=O)[C@@H](NC(=O)C23C4C5C2C2C3C4C52C(=O)N2CCC(C3CCN(c4ccc(-n5ncc6c(=O)n(CC7(O)CCN(C(=O)C[C@@H](C)c8ccccc8)CC7)cnc65)cc4)CC3)CC2)C(C)(C)C)cc1 (some centres unmarked) [NK266] | 16 h and 16 to 24 h | 49 | near complete degradation of USP7 | 16 | higher potency | 94 | 29 | 74 | 90 to 92 | 24 | – | – | – | – | – | – | –
2 | Cc1ncsc1-c1ccc(CNC(=O)[C@@H]2C[C@H](O)CN2C(=O)[C@@H](NC(=O)[C@H]2CC[C@H](C(=O)N3CCN(c4ccc(-n5ncc6c(=O)n(CC7(O)CCN(C(=O)C[C@@H](C)c8ccccc8)CC7)cnc65)cc4)CC3)CC2)C(C)(C)C)cc1 [NK245] | – | – | – | – | – | – | – | – | – | – | did not reduce protein levels | did not reduce protein levels | partial reduction of USP7 levels | – | – | – | –
3 | Cc1ncsc1-c1ccc([C@H](C)NC(=O)[C@@H]2C[C@@H](O)CN2C(=O)[C@@H](NC(=O)[C@H]2CC[C@H](C(=O)N3CCN(c4ccc(-n5ncc6c(=O)n(CC7(O)CCN(C(=O)C[C@@H](C)c8ccccc8)CC7)cnc65)cc4)CC3)CC2)C(C)(C)C)cc1 [NK250] | – | 8 | – | – | – | – | 154 ± 38 | 87 | 90 to 92 | 4 | – | weak effects | – | complete degradation | ~100 | 98 | not able to fully degrade USP7
